Activity data for one compound are collected here from ChEMBL document CHEMBL3045189, “Ginsenoside Re downregulates ICAM-1 expression, inhibits polymorphonuclear infiltration, and ameliorates ischemia-reperfusion injury” (2010).

The source made the active and inactive calls. The rule behind the calls is not given here.

Assay [1] concerns Rattus norvegicus. Put plainly: Cardioprotective activity in Rattus norvegicus Sprague-Dawley (rat) ischemia-reperfusion injury model assessed as decrease in myocardial infarct size at 20 mg/kg, iv administered 10 min prior to ischemia-reperfusion establishment measured after 6 hr by tetrazolium chloride staining-based planimetric analysis (reference value: 42.6 +/- 3.8 %). Also on record: scale not given: the % may be the effect or the level left. Type of assay: functional, Myocardium.

For assay [2], the system named is Rattus norvegicus. Kind of assay: Downregulation of ICAM-1 expression in Rattus norvegicus Sprague-Dawley (rat) heart at 20 mg/kg, iv measured 10 min post LAD ligation by Western blot analysis relative to untreated control. Type of assay: functional, organism-based. On the set-up: dose 20 mg/kg.
For assay [3], the system named is Rattus norvegicus. Kind of assay: Cardioprotective activity in Rattus norvegicus Sprague-Dawley (rat) ischemia-reperfusion injury model assessed as area at risk in myocardial tissue at 20 mg/kg, iv administered 10 min prior to ischemia-reperfusion establishment measured after 6 hr by Evans blue staining-based planimetric analysis (reference value: 49.8 +/- 3.7 %). Type of assay: functional, Myocardium.

Assay [4] has as its system Rattus norvegicus. Put plainly: Cardioprotective activity in Rattus norvegicus Sprague-Dawley (rat) ischemia-reperfusion injury model assessed as decrease in polymorphonuclear leukocytes infiltration in myocardial tissue at 20 mg/kg, iv measured 10 min prior to reperfusion measured at 6 hr by hematoxylin-eosin staining-based light microscopy relative to untreated control. Also on record: dose 20 mg/kg. Conditions: Myocardium. Type of assay: functional, organism-based.

The subject of assay [5] is Rattus norvegicus. Kind of assay: Cardioprotective activity in Rattus norvegicus Sprague-Dawley (rat) ischemia-reperfusion injury model assessed as decrease in myeloperoxidase activation in myocardial tissue at 20 mg/kg, iv measured 10 min prior to reperfusion measured at 6 hr by spectrophotometric analysis relative to untreated control. Also on record: dose 20 mg/kg. Type of assay: functional, organism-based. Particulars: Myocardium.

In the case of `CC(C)=CCC[C@](C)(O[C@@H]1O[C@H](CO)[C@@H](O)[C@H](O)[C@H]1O)[C@H]1CC[C@]2(C)[C@@H]1[C@H](O)C[C@@H]1[C@@]3(C)CC[C@H](O)C(C)(C)[C@@H]3[C@@H](O[C@@H]3O[C@H](CO)[C@@H](O)[C@H](O)[C@H]3O[C@@H]3O[C@@H](C)[C@H](O)[C@@H](O)[C@H]3O)C[C@]12C` [GINSENOSIDE RE], the values for the Activity with Rattus norvegicus [1] and in the assay on Rattus norvegicus [3] were 42.6% and 50.3%, respectively. Further, the outcome in the assay with Rattus norvegicus [2], with Rattus norvegicus [4] and in the assay on Rattus norvegicus [5] was Active.
